Patent publication EP4624463A1, “SPIRO DERIVATIVE AS KIF18A INHIBITOR” (Insilico Medicine IP Limited, priority 2022, dated 2024)

Molecular target: T1, KIF18A (Homo sapiens, UniProt Q8NI77)
T1 sequence (Q8NI77 1-898): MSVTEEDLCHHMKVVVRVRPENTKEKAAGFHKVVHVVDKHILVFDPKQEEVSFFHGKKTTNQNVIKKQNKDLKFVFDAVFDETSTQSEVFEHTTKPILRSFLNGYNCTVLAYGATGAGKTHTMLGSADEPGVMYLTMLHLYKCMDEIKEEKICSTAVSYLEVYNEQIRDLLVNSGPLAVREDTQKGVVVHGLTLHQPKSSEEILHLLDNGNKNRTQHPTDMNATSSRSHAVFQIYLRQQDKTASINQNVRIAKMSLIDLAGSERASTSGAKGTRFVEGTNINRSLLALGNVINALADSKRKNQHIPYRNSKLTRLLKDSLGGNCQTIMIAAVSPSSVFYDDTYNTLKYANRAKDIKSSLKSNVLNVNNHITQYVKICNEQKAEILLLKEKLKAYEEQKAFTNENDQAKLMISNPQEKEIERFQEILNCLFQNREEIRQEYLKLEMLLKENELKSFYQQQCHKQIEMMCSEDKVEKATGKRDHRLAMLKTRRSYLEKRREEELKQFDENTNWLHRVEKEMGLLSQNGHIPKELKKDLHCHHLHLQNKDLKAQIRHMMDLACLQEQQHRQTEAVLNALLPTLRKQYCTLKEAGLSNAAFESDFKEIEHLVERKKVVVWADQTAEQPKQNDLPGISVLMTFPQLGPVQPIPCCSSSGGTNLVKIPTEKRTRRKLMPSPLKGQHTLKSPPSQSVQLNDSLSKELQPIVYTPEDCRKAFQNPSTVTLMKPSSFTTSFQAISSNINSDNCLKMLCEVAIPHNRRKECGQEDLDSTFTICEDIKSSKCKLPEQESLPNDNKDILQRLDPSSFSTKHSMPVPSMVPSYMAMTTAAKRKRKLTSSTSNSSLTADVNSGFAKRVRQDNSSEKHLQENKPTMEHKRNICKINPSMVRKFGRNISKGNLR
Test: KIF18A enzyme inhibition activity assay (ADP-Glo)
Format: biochemical
Conditions: ADP-Glo kit, porcine tubulin, ATP; 10 concentration points, 3-fold serial dilution; 25°C
Protocol: Embodiment 6: Biological example: KIF18A enzyme inhibition activity assay
2) Steps: • 2.1 Preparation of enzyme protein buffer solution • 2.2 Activity screening • a) 40 µL of compound solution was added to a 384-well dilution plate; • b) A 3-fold serial dilution was performed to obtain 10 concentration points; • c) 0.1 µL of compound solution was transferred into a 384-well plate; • d) 5 µL of enzyme reaction solution was added and centrifuged at 1,000 RPM for 1 minute; • e) The reaction took place at 25°C for 15 minutes; • f) 5 µL of ATP reaction solution was added; • g) The reaction took place at 25°C for 60 minutes; • h) 10 µL of ADP-Glo reagent was added and centrifuged at 1,000 RPM for 1 minute; • i) The reaction took place at 25°C for 60 minutes; • j) 20 µL of detection reagent was added and centrifuged at 1,000 RPM for 1 minute; • k) The reaction took place at 25°C for 60 minutes; • l) The Envision 2104 plate reader was used to measure […]. 3) Data analysis • 3.1 Fluorescence signal values were obtained from the readings of each well • 3.2 Calculation of IC50 Concentration-response curve fitting and IC50 determination were performed using GraphPad Prism software with a four-parameter logistic regression model.

Row | Structure (SMILES) | IC50 [nM]
1 | O=C1c2ccc(NS(=O)(=O)CCO)cc2C2(CCC3(CC3)CC2)CN1c1ccc(=O)n(C2CC(F)(F)C2)n1 [EX05, N-{2-[1-(3,3-Difluorocyclobutyl)-6-oxo-1,2-diazacyclohexanecarbonate-3-yl]-1-oxo-2,3-dihydro-1H-spiro[isoquinoline-4,6'-spiro[2.5]octane]-6-yl}-2-hydroxyethanesulfonamide] | 8.2
2 | C[C@@H]1CN(c2cccc(N3CC4(CCC5(CC5)CC4)c4cc(NS(=O)(=O)CCO)ccc4C3=O)n2)CCO1 [EX04, 2-Hydroxy-N-(2-{6-[(2R)-2-methyl-1,4-oxazinane-4-yl]pyridin-2-yl}-1-oxo-2,3-dihydro-1H-spiro[isoquinoline-4,6'-spiro[2.5]octane]-6-yl)ethanesulfonamide] | 107
3 | O=C1c2ccc(NS(=O)(=O)CCO)cc2C2(CCCCC2)CN1c1cccc(N2CCOCC2)n1 [EX01, 2-Hydroxy-N-{2'-[6-(1,4-oxazinane-4-yl)pyridin-2-yl]-1'-oxo-2',3'-dihydro-1'H-spiro[cyclohexane-1,4'-isoquinoline]-6'-yl} ethanesulfonamide] | 2030

The remaining lines, values ahead:

Row | IC50 [nM] | Structure (SMILES)
4 | 44 | Cc1cc(N2CC3(CCC(C)(C)CC3)c3cc(NS(=O)(=O)CCO)ccc3C2=O)nc(N2CCC(F)(F)CC2)n1 [EX03, N-{2'-[2-(4,4-difluorohexahydropyridin-1-yl)-6-methylpyrimidin-4-yl]-1,1-dimethyl-1'-oxo-2',3'-dihydro-1'H-spiro[cyclohexane-4,4'-isoquinoline]-6'-yl}-2-hydroxyethanesulfonamide]
5 | 38 | Cc1cc(N2CC3(CCC4(CC4)CC3)c3cc(NS(=O)(=O)CCO)ccc3C2=O)nc(N2CCC(F)(F)CC2)n1 [EX02, N-{2-[2-(4,4-Difluorohexahydropyridin-1-yl)-6-methylpyrimidin-4-yl]-1-oxo-2,3-dihydro-1H-spiro[isoquinoline-4,6'-spiro[2.5]octane]-6-yl}-2-hydroxyethanesulfonamide]
